# Test results: patent US20260356819A1, “OXOISOINDOLINYL-SUBSTITUTED […] DERIVATIVE AND USE THEREOF” (GLUETACS THERAPEUTICS (SHANGHAI) CO., LTD., priority 2023, published 2026)
# Experiments:
# Type in all cases: cell-based
# Settings in all cases: compounds at 50 nM and 500 nM
# WEE1 = biological target: T1, WEE1 (Homo sapiens, UniProt P30291+Q96SW2); experiment: Western blot degradation of WEE1 in hPBMCs (24 h)
# T1 construct: The supernatant was aspirated as the extracted total cell protein; endogenous in cells; host or cells: human peripheral blood mononuclear cells (hPBMCs)
# How it was run: (§1)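 Immunoblot densitometry quantifies target loss in hPBMCs after a 24 h compound exposure (50 nM, 500 nM). Percent remaining is normalised band intensity; DC50 is the concentration giving half the DMSO-control band grayscale.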
# IKZF3 = biological target: T2, IKZF3 (Homo sapiens, UniProt Q96SW2+Q9UKT9); experiment: Western blot degradation of IKZF3 in hPBMCs (24 h)
# T2 construct: The supernatant was aspirated as the extracted total cell protein; endogenous in cells; host or cells: human peripheral blood mononuclear cells (hPBMCs)
# T2 sequence (Q9UKT9 whole entry): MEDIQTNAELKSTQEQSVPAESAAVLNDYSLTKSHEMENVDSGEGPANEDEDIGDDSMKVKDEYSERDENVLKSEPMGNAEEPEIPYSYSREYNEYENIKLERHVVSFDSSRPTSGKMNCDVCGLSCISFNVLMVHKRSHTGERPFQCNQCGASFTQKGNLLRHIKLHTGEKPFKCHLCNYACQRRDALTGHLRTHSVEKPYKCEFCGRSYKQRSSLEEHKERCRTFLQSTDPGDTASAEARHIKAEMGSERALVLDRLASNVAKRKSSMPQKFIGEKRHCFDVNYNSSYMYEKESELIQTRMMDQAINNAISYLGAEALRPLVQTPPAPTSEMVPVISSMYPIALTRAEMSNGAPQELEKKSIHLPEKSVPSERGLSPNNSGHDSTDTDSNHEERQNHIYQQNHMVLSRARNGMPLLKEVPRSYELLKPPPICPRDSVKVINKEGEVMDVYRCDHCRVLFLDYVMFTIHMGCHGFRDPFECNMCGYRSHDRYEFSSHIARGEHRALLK
# T2 sequence (Q96SW2 whole entry): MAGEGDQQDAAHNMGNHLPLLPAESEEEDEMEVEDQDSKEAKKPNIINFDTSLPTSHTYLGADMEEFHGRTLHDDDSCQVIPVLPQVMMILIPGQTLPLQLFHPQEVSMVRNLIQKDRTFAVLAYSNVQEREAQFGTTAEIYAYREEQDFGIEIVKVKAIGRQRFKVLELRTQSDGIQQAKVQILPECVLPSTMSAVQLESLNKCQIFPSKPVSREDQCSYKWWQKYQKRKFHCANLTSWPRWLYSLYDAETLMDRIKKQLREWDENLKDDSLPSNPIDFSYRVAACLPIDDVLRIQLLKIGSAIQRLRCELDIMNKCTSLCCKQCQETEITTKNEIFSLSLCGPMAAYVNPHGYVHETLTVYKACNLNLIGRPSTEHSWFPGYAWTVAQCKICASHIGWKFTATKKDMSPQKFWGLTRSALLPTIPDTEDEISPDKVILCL
# T2 sequence (Q16531 whole entry partner): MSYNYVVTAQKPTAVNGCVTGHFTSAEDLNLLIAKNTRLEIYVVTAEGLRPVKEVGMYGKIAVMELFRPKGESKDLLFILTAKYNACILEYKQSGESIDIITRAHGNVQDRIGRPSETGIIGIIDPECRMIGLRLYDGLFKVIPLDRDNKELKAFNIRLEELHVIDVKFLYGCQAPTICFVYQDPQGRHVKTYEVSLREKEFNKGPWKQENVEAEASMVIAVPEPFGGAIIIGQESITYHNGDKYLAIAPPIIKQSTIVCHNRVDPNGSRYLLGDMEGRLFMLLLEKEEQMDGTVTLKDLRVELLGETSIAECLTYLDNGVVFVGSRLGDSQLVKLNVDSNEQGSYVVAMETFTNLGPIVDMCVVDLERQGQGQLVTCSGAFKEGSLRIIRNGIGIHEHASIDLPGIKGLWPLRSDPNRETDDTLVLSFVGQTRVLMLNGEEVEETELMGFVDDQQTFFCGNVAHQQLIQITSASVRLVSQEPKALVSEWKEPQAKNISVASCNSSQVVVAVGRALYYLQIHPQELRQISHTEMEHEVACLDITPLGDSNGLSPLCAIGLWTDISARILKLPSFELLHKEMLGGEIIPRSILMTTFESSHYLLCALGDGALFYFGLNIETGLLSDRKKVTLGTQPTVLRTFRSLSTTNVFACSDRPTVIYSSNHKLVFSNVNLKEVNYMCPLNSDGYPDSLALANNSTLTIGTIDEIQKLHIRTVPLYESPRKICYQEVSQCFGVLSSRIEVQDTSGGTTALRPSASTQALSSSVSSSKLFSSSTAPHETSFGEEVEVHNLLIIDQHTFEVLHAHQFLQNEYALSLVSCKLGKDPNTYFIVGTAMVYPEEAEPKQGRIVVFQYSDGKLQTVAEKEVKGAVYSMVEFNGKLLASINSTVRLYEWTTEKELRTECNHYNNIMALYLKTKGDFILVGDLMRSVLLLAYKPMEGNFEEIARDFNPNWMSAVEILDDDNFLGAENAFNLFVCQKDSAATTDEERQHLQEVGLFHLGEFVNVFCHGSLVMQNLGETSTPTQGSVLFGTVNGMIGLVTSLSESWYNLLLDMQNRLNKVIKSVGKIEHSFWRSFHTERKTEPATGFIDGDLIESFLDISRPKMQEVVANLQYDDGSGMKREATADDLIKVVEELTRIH
# How it was run: as §1
# IKZF2 = biological target: T3, IKZF2 (Homo sapiens, UniProt Q96SW2+Q9UKS7); experiment: Western blot degradation of IKZF2 in hPBMCs (24 h)
# T3 construct: The supernatant was aspirated as the extracted total cell protein; endogenous in cells; host or cells: human peripheral blood mononuclear cells (hPBMCs)
# T3 sequence (Q9UKS7 whole entry): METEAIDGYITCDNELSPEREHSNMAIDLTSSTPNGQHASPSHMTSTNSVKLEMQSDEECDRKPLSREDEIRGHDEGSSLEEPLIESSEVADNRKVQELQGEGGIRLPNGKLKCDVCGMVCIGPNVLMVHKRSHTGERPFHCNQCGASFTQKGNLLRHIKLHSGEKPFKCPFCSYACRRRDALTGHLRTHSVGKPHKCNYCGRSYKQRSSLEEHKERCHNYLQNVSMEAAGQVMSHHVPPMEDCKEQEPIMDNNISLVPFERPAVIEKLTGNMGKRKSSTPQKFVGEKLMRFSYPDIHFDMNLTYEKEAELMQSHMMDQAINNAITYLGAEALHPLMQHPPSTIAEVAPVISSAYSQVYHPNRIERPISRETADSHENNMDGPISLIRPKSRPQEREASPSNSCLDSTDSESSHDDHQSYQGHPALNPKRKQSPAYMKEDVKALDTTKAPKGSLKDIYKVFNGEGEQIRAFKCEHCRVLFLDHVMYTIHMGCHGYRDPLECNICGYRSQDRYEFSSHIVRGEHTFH
# T3 sequence (Q96SW2 whole entry): as the sequence (Q96SW2 whole entry) above
# T3 sequence (Q16531 whole entry partner): as the sequence (Q16531 whole entry partner) above
# How it was run: as §1
# GSPT1 = biological target: T4, GSPT1 (Homo sapiens, UniProt P15170+Q96SW2); experiment: Western blot degradation of GSPT1 in hPBMCs (24 h)
# T4 construct: The supernatant was aspirated as the extracted total cell protein; endogenous in cells; host or cells: human peripheral blood mononuclear cells (hPBMCs)
# T4 sequence (P15170 whole entry): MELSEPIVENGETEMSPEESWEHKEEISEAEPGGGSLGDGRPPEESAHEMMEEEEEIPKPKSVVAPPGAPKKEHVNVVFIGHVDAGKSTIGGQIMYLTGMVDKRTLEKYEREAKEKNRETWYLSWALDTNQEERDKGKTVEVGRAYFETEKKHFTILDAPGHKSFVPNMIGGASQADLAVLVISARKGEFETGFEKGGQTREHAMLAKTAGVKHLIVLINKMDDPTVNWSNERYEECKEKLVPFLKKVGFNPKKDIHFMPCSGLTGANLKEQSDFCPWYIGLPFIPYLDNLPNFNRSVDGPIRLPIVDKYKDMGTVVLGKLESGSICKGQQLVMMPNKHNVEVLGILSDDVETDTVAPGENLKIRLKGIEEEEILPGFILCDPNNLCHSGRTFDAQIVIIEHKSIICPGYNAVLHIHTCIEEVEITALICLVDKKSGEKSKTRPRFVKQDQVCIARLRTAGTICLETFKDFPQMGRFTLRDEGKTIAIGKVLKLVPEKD
# T4 sequence (Q96SW2 whole entry): as the sequence (Q96SW2 whole entry) above
# T4 sequence (Q16531 whole entry partner): as the sequence (Q16531 whole entry partner) above
# How it was run: as §1
# CK1α = biological target: T5, CK1α (Homo sapiens, UniProt P48729+Q96SW2); experiment: Western blot degradation of CK1α in hPBMCs (24 h)
# T5 construct: The supernatant was aspirated as the extracted total cell protein; endogenous in cells; host or cells: human peripheral blood mononuclear cells (hPBMCs)
# T5 sequence (P48729 whole entry): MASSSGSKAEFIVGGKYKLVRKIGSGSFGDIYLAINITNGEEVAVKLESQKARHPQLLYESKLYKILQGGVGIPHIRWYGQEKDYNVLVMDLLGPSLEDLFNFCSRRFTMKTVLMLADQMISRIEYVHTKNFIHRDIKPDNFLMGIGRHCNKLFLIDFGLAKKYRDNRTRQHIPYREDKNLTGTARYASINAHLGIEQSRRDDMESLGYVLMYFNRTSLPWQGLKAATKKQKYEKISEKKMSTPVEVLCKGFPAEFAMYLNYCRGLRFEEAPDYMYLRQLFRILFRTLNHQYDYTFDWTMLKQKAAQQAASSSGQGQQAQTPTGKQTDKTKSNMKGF
# T5 sequence (Q96SW2 whole entry): as the sequence (Q96SW2 whole entry) above
# T5 sequence (Q16531 whole entry partner): as the sequence (Q16531 whole entry partner) above
# How it was run: as §1
# IKZF1 = biological target: T6, IKZF1 (Homo sapiens, UniProt Q13422+Q96SW2); experiment: Western blot degradation of IKZF1 in hPBMCs (24 h)
# T6 construct: The supernatant was aspirated as the extracted total cell protein; endogenous in cells; host or cells: human peripheral blood mononuclear cells (hPBMCs)
# T6 sequence (Q13422 whole entry): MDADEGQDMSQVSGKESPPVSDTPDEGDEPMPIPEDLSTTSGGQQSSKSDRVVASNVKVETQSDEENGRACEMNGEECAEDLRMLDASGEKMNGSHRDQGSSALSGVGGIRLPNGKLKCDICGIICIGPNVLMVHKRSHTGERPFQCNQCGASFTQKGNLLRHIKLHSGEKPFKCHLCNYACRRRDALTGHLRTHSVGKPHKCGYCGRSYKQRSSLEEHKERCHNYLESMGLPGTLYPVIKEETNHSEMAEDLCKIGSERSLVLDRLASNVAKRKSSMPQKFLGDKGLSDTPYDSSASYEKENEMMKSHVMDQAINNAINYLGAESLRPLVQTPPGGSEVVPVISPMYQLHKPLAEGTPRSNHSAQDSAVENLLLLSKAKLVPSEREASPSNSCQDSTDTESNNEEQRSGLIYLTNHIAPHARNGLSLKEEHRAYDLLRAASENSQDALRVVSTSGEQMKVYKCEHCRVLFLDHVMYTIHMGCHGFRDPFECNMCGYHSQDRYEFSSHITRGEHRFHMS
# T6 sequence (Q96SW2 whole entry): as the sequence (Q96SW2 whole entry) above
# T6 sequence (Q16531 whole entry partner): as the sequence (Q16531 whole entry partner) above
# How it was run: as §1
SMILES,WEE1 substrate protein remaining % (WEE1),IKZF3 substrate protein remaining % (IKZF3),IKZF2 substrate protein remaining % (IKZF2),GSPT1 substrate protein remaining % (GSPT1),CK1α substrate protein remaining % (CK1α),IKZF1 substrate protein remaining % (IKZF1)
"O=C1CCN(N2Cc3cc(CN4CCN(c5ncnc6scc(-c7ccccc7)c56)CC4)ccc3C2=O)C(=O)N1 [GT-08065, 1-(1-oxo-5-((4-(5-phenylthieno[2,3-d]pyrimidin-4-yl)piperazin-1-yl)methyl)isoindolin-2-yl)dihydropyrimidine-2,4(1H,3H)-dione]",B (80%< substrate protein remaining % ≤100%),B (80%< substrate protein remaining % ≤100%),A (0% ≤ substrate protein remaining % ≤80%),B (80%< substrate protein remaining % ≤100%),B (80%< substrate protein remaining % ≤100%),B (80%< substrate protein remaining % ≤100%)
"Cc1nc(N2CCN(Cc3ccc4c(c3)CN(N3CCC(=O)NC3=O)C4=O)CC2)c2c(-c3ccccc3)csc2n1 [GT-08066, 1-(5-((4-(2-methyl-5-phenylthieno[2,3-d]pyrimidin-4-yl)piperazin-1-yl)methyl)-1-oxoisoindolin-2-yl)dihydropyrimidine-2,4(1H,3H)-dione]",B (80%< substrate protein remaining % ≤100%),B (80%< substrate protein remaining % ≤100%),A (0% ≤ substrate protein remaining % ≤80%),B (80%< substrate protein remaining % ≤100%),A (0% ≤ substrate protein remaining % ≤80%),B (80%< substrate protein remaining % ≤100%)
"Cc1nc(N2CCN(Cc3ccc4c(c3)CN(N3CCC(=O)NC3=O)C4=O)CC2)c2ccsc2n1 [GT-08067, 1-(5-((4-(2-methylthieno[2,3-d]pyrimidin-4-yl)piperazin-1-yl)methyl)-1-oxoisoindolin-2-yl)dihydropyrimidine-2,4(1H,3H)-dione]",B (80%< substrate protein remaining % ≤100%),B (80%< substrate protein remaining % ≤100%),A (0% ≤ substrate protein remaining % ≤80%),B (80%< substrate protein remaining % ≤100%),B (80%< substrate protein remaining % ≤100%),B (80%< substrate protein remaining % ≤100%)
"Cc1nc(N2CCN(Cc3ccc4c(c3)CN(N3CCC(=O)NC3=O)C4=O)CC2)c2c3c(sc2n1)CCCC3 [GT-08068, 1-(5-((4-(2-methyl-5,6,7,8-tetrahydrobenzo[4,5]thieno[2,3-d]pyrimidin-4-yl)piperazin-1-yl)methyl)-1-oxoisoindolin-2-yl)dihydropyrimidine-2,4(1H,3H)-dione]",B (80%< substrate protein remaining % ≤100%),B (80%< substrate protein remaining % ≤100%),A (0% ≤ substrate protein remaining % ≤80%),B (80%< substrate protein remaining % ≤100%),A (0% ≤ substrate protein remaining % ≤80%),B (80%< substrate protein remaining % ≤100%)
"O=C1CCN(N2Cc3cc(CN4CCN(c5ncnc6sc7c(c56)CCCC7)CC4)ccc3C2=O)C(=O)N1 [GT-08077, 1-(1-oxo-5-((4-(5,6,7,8-tetrahydrobenzo[4,5]thieno[2,3-d]pyrimidin-4-yl)piperazin-1-yl)methyl)isoindolin-2-yl)dihydropyrimidine-2,4(1H,3H)-dione]",B (80%< substrate protein remaining % ≤100%),B (80%< substrate protein remaining % ≤100%),B (80%< substrate protein remaining % ≤100%),A (0% ≤ substrate protein remaining % ≤80%),A (0% ≤ substrate protein remaining % ≤80%),B (80%< substrate protein remaining % ≤100%)
"O=C1CCN(N2Cc3cc(CN4CCN(c5ncnc6sc7c(c56)CCC7)CC4)ccc3C2=O)C(=O)N1 [GT-08079, 1-(5-((4-(6,7-dihydro-5H-cyclopenta[4,5]thieno[2,3-d]pyrimidin-4-yl)piperazin-1-yl)methyl)-1-oxoisoindolin-2-yl)dihydropyrimidine-2,4(1H,3H)-dione]",A (0% ≤ substrate protein remaining % ≤80%),B (80%< substrate protein remaining % ≤100%),B (80%< substrate protein remaining % ≤100%),A (0% ≤ substrate protein remaining % ≤80%),A (0% ≤ substrate protein remaining % ≤80%),B (80%< substrate protein remaining % ≤100%)
"Cc1nc(N2CCN(Cc3ccc4c(c3)CN(N3CCC(=O)NC3=O)C4=O)CC2)c2c3c(sc2n1)CCC3 [GT-08080, 1-(5-((4-(2-methyl-6,7-dihydro-5H-cyclopenta[4,5]thieno[2,3-d]pyrimidin-4-yl)piperazin-1-yl)methyl)-1-oxoisoindolin-2-yl)dihydropyrimidine-2,4(1H,3H)-dione]",A (0% ≤ substrate protein remaining % ≤80%),B (80%< substrate protein remaining % ≤100%),B (80%< substrate protein remaining % ≤100%),A (0% ≤ substrate protein remaining % ≤80%),A (0% ≤ substrate protein remaining % ≤80%),B (80%< substrate protein remaining % ≤100%)
"O=C1CCN(N2Cc3cc(CN4CCN(c5ncc6ccsc6n5)CC4)ccc3C2=O)C(=O)N1 [GT-08081, 1-(1-oxo-5-((4-(thieno[2,3-d]pyrimidin-2-yl)piperazin-1-yl)methyl)isoindolin-2-yl)dihydropyrimidine-2,4(1H,3H)-dione]",A (0% ≤ substrate protein remaining % ≤80%),B (80%< substrate protein remaining % ≤100%),B (80%< substrate protein remaining % ≤100%),A (0% ≤ substrate protein remaining % ≤80%),A (0% ≤ substrate protein remaining % ≤80%),B (80%< substrate protein remaining % ≤100%)
"O=C1CCN(N2Cc3cc(CN4CCC(c5ncnc6sccc56)CC4)ccc3C2=O)C(=O)N1 [GT-08082, 1-(1-oxo-5-((4-(thieno[2,3-d]pyrimidin-4-yl)piperidin-1-yl)methyl)isoindolin-2-yl)dihydropyrimidine-2,4(1H,3H)-dione]",A (0% ≤ substrate protein remaining % ≤80%),B (80%< substrate protein remaining % ≤100%),B (80%< substrate protein remaining % ≤100%),A (0% ≤ substrate protein remaining % ≤80%),A (0% ≤ substrate protein remaining % ≤80%),B (80%< substrate protein remaining % ≤100%)
"Cc1cc2c(C3CCN(Cc4ccc5c(c4)CN(N4CCC(=O)NC4=O)C5=O)CC3)ncnc2s1 [GT-08083, 1-(5-((4-(6-methylthieno[2,3-d]pyrimidin-4-yl)piperidin-1-yl)methyl)-1-oxoisoindolin-2-yl)dihydropyrimidine-2,4(1H,3H)-dione]",B (80%< substrate protein remaining % ≤100%),B (80%< substrate protein remaining % ≤100%),B (80%< substrate protein remaining % ≤100%),A (0% ≤ substrate protein remaining % ≤80%),A (0% ≤ substrate protein remaining % ≤80%),B (80%< substrate protein remaining % ≤100%)
"Cc1sc2ncnc(C3CCN(Cc4ccc5c(c4)CN(N4CCC(=O)NC4=O)C5=O)CC3)c2c1C [GT-08084, 1-(5-((4-(5,6-dimethylthieno[2,3-d]pyrimidin-4-yl)piperidin-1-yl)methyl)-1-oxoisoindolin-2-yl)dihydropyrimidine-2,4(1H,3H)-dione]",B (80%< substrate protein remaining % ≤100%),B (80%< substrate protein remaining % ≤100%),B (80%< substrate protein remaining % ≤100%),A (0% ≤ substrate protein remaining % ≤80%),A (0% ≤ substrate protein remaining % ≤80%),B (80%< substrate protein remaining % ≤100%)
"O=C1CCN(N2Cc3cc(CN4CCC(c5ncnc6sc(-c7ccccc7)cc56)CC4)ccc3C2=O)C(=O)N1 [GT-08085, 1-(1-oxo-5-((4-(6-phenylthieno[2,3-d]pyrimidin-4-yl)piperidin-1-yl)methyl)isoindolin-2-yl)dihydropyrimidine-2,4(1H,3H)-dione]",B (80%< substrate protein remaining % ≤100%),B (80%< substrate protein remaining % ≤100%),B (80%< substrate protein remaining % ≤100%),A (0% ≤ substrate protein remaining % ≤80%),A (0% ≤ substrate protein remaining % ≤80%),B (80%< substrate protein remaining % ≤100%)
